Measurements as given in paper PMC6110851, “An Optimized MicroPET Imaging Method for the Distribution and Synergies of Natural Products” (Frontiers in Pharmacology, 2018).

How the values were obtained:
[1] = MicroPET biodistribution of [^18F]-GA in mice; assay type: in vivo
Experimental: The mice were grouped by weight and housed in cages of the climate control room (25°C), with a photoperiod 12:12-h. During feeding, mice were free to access food and water. Mice were fasted for 24 h before the experiment. The mice were anesthetized with 4% isoflurane while preparing for scanning ([Constantinescu et al., 2013b]; [Cui et al., 2017]). Eighteen healthy male Kunming mice, weighing 20 ± 2 g, were divided into three groups, which were control group, once-administered (OA) group and long-term administration (LA) group. In the OA group, 1 h before the administration of [^18F]-GA, the mice were orally treated with PG polysaccharides. In the LA group, the mice were orally given the PG polysaccharides for 7 days, but not before the administration of [^18F]-GA.
Rice received a tail vein injection (8.67 ± 2.14 MBq/μg) of [^18F]-GA and placed in the scanner bed and mouse-imaging room immediately ([Constantinescu et al., 2013b]; [O’Doherty et al., 2017]). Firstly, 2 h PET scanning was performed using an Inveon-dedicated PET scanner. The average delay between injection and starting of PET scanning was 3.5 min. Rice were maintained stable under 4% isoflurane anesthesia throughout scanning. The PET list-mode data were dynamically classified into 23 3D sinograms of span and three ring difference. After Fourier recombination, the data were reconstructed using a 2D ordered-subset expectation maximization algorithm. Random events were excluded before reconstruction. The response of detector is normalized using a component-based approach. All dynamic images were corrected for radioactive decay automatically. The PET images were reconstructed by a cone beam algorithm into 480 × 480 × 632 image arrays. After the reconstruction, images were spatially transformed to match the PET images ([Constantinescu et al., 2013a],[b]).
The reconstruction of the image was performed using the PMOD software (PMOD Technologies). The 3D volumes of interest (VOIs) were drawn manually of the following organs: brain, heart, liver, lungs, kidneys, cortical bone, and gallbladder. The organs were carefully identified and VOIs were drawn as irregular contours on high-resolution PET images obtained from each mouse ([Constantinescu et al., 2013b]; [Garg et al., 2017]). The size of each VOI was less than the actual size of each organ to minimize the effects of PET on adjacent organ spills. The VOIs drawing was verified by a second operator. The VOIs of cortical bone were generated by first using PET image to depict the entire femur bone ([Constantinescu et al., 2013b]). The VOI was transferred to a dynamic PET image and the mean time-activity curve (TAC) of the decay correction was extracted for each target organ ([Constantinescu et al., 2013b]).

[2] = test system: NF-κB; test: NF-κB dual luciferase reporter assay in TNF-stimulated HEK 293 T cells; assay type: cell-based; conditions: 10 μmol/L, HEK 293T stimulated by TNF-α, P < 0.05
Experimental: The separation process was repeated five times for use in the activity tests. […] After 48 h, radioactive elements had decayed, the residues were stored at 4°C for anti-inflammatory activity tests ([Dong et al., 2013]; [Qingxin et al., 2016]).
HEK 293 T cells were cultured in standard Dulbecco’s modified Eagle’s medium (DMEM; Hyclone) supplemented with 10% fetal bovine serum (FBS; Biological Industries). The cells were placed in 96-well plates at 37°C in an air-CO2 environment (95/5% v/v). Cells were grown to 80–90% confluence and incubated for 12 h in DMEM without FBS. Transfection (20 h) was performed according to the manufacturer’s instructions. HEK 293 T cells were pretreated with drugs 1 h prior to TNF-stimulation (5 ng/mL) for 6 h. Dex (10^-5mol/L) was used as a positive control for NF-κB inhibition. The NF-κB activity was assayed using dual luciferase reporter assay system (Promega) according to the manufacturer’s instructions ([Qingxin et al., 2016]). Antiinflammatory activity was calculated as the ratio of firefly luciferase activity to Renilla luciferase activity (internal control).

CC1(C)[C@@H](O)CC[C@]2(C)[C@H]3C(=O)C=C4[C@@H]5C[C@@](C)(C(=O)O)CC[C@]5(C)CC[C@@]4(C)[C@]3(C)CC[C@@H]12 [GA, Glycyrrhetic acid, reference compound]
passage of the blood brain barrier ([1]; mice, concluded from brain concentrations): could not pass the blood brain barrier
concentration in the brain of the mouse ([1]; results obtained from PET): very low, almost undetectable

C[C@@H]1C[C@H]2[C@@H]3CCC4=CC(=O)C=C[C@]4(C)[C@@]3(F)[C@@H](O)C[C@]2(C)[C@@]1(O)C(=O)CO [Dex, reference compound]
NF-κB inhibitory effect [2]: significant NF-κB inhibitory effects
